Patent US11702422B2, “Imidazopyridazines as modulators of IL-17” (Janssen Pharmaceutica NV, priority 2020, dated 2023)

Key:
[1] = target: IL-17A(FLAG-Tagged): IL-17RA(His-Tagged) (Homo sapiens, UniProt Q16552, K93Q); assay: IL-17A(FLAG-Tagged): IL-17RA(His-Tagged) Binding Disruption Eu-HTRF Assay; details: IL-17A/IL-17RA binding disruption, simple average if tested more than once
Procedure, shortened: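 IC50 comes from a one-site competition fit of the HTRF 665/620 nm ratio. Compound dilutions (2-fold, 22 points) were held 1 h rt with FLAG-tagged IL-17A dimer, then His-tagged IL-17RA plus Eu-cryptate anti-FLAG and D2 anti-His antibodies were added for 2 h rt.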

[2] = system: IL-17A-induced G-CSF production in human normal keratinocyte (NHK); assay: NHK Assay: IL-17A-induced G-CSF production in human normal keratinocytes; format: cell-based; details: Homo sapiens, Keratinocyte, 24 h, adult normal human keratinocytes, IL-17A 5 ng/mL, simple average if tested more than once
Procedure, shortened: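 HTRF read-out of supernatant G-CSF, quantified from a standard curve, gave IC50 values. Adult keratinocytes, 3000-4000 cells/well, received human IL-17A (5 ng/mL final) pre-mixed 1 h at rt with compound, in 5% FBS and 0.2% DMSO, 24 h at 37° C.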

UniProt Q16552, sequence (Q16552 with tags, fused parts or gaps K93Q): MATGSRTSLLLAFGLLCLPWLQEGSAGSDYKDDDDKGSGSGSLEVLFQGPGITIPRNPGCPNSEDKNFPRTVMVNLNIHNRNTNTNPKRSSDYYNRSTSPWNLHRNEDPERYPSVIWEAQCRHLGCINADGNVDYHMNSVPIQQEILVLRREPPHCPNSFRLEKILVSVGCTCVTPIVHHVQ

SMILES | IC50 [1] [nM] | IC50 [2] [nM]
CC(C)c1nocc1C(=O)N[C@H](c1cn2ncc([C@H](NC(=O)CCC(F)(F)F)C3CC3)cc2n1)C1CCC(F)(F)CC1 [Example 76, N—((S)-(7-((R)-Cyclopropyl(4,4,4-trifluorobutanamido)methyl)imidazo[1,2-b]pyridazin-2-yl)(4,4-difluorocyclohexyl)methyl)-3-isopropylisoxazole-4-carboxamide] | 67 | 67
O=C(CCC(F)(F)F)N[C@@H](c1cnn2cc([C@@H](NC(=O)c3conc3CCC(F)(F)F)C3CCC(F)(F)CC3)nc2c1)C1CC1 [Example 77, N—((S)-(7-((R)-Cyclopropyl(4,4,4-trifluorobutanamido)methyl)imidazo[1,2-b]pyridazin-2-yl)(4,4-difluorocyclohexyl)methyl)-3-(3,3,3-trifluoropropyl)isoxazole-4-carboxamide] | 50 | 60
Cc1cc(C(=O)N[C@H](c2cn3ncc([C@H](NC(=O)CCC(F)(F)F)C4CC4)cc3n2)C2CCC(F)(F)CC2)n(C(C)C)n1 [Example 78, N—((S)-(7-((R)-Cyclopropyl(4,4,4-trifluorobutanamido)methyl)imidazo[1,2-b]pyridazin-2-yl)(4,4-difluorocyclohexyl)methyl)-1-isopropyl-3-methyl-1H-pyrazole-5-carboxamide] | 260 | 330
Cc1nocc1C(=O)N[C@H](c1cn2ncc([C@H](NC(=O)CCC(F)(F)F)C3CC3)cc2n1)C1CCC(F)(F)CC1 [Example 79, N—((S)-(7-((R)-Cyclopropyl(4,4,4-trifluorobutanamido)methyl)imidazo[1,2-b]pyridazin-2-yl)(4,4-difluorocyclohexyl)methyl)-3-methylisoxazole-4-carboxamide] | 84 | 150
Cc1noc(C)c1C(=O)N[C@H](c1cn2ncc([C@H](NC(=O)CCC(F)(F)F)C3CC3)cc2n1)C1CCC(F)(F)CC1 [Example 80, N—((S)-(7-((R)-Cyclopropyl(4,4,4-trifluorobutanamido)methyl)imidazo[1,2-b]pyridazin-2-yl)(4,4-difluorocyclohexyl)methyl)-3,5-dimethylisoxazole-4-carboxamide] | 17000 | > 20000
Cc1noc(C(C)C)c1C(=O)N[C@H](c1cn2ncc([C@H](NC(=O)CCC(F)(F)F)C3CC3)cc2n1)C1CCC(F)(F)CC1 [Example 81, N—((S)-(7-((R)-Cyclopropyl(4,4,4-trifluorobutanamido)methyl)imidazo[1,2-b]pyridazin-2-yl)(4,4-difluorocyclohexyl)methyl)-5-isopropyl-3-methylisoxazole-4-carboxamide] | 5600 | > 20000
CCc1noc(C)c1C(=O)N[C@H](c1cn2ncc([C@H](NC(=O)CCC(F)(F)F)C3CC3)cc2n1)C1CCC(F)(F)CC1 [Example 82, N—((S)-(7-((R)-Cyclopropyl(4,4,4-trifluorobutanamido)methyl)imidazo[1,2-b]pyridazin-2-yl)(4,4-difluorocyclohexyl)methyl)-3-ethyl-5-methylisoxazole-4-carboxamide] | 3000 | > 20000
CCc1nocc1C(=O)N[C@H](c1cn2ncc([C@H](NC(=O)CCC(F)(F)F)C3CC3)cc2n1)C1CCC(F)(F)CC1 [Example 83, N—((S)-(7-((R)-Cyclopropyl(4,4,4-trifluorobutanamido)methyl)imidazo[1,2-b]pyridazin-2-yl)(4,4-difluorocyclohexyl)methyl)-3-ethylisoxazole-4-carboxamide] | 33 | 60
O=C(CCC(F)(F)F)N[C@@H](c1cnn2cc([C@@H](NC(=O)c3cnoc3C3CC3)C3CCC(F)(F)CC3)nc2c1)C1CC1 [Example 84, 5-Cyclopropyl-N—((S)-(7-((R)-cyclopropyl(4,4,4-trifluorobutanamido)methyl)imidazo[1,2-b]pyridazin-2-yl)(4,4-difluorocyclohexyl)methyl)isoxazole-4-carboxamide] | 80 | 160
